Columns and labels:
[1] = system: vascular smooth muscle tissue; test: Vascular tissue contractile response (muscle bath, KCl-contracted tissue); assay type: cell-based, white New Zealand rabbits and human; conditions: cumulative 10^-8 to 10^-5 M, tissue contracted with KCl, FIG. 1 and FIG. 2
Method: Ginsburg (Stanford University Medical School), crown and silacrown ethers in concentrations of 10^−8M, 10^−7 M, 10^−6 M and 10^−5M were prepared fresh daily in deionized water. The 10^−5 M concentrations were used for the preliminary screening of the ionophores for vasoactivity to determine the most promising candidates. The procedures utilized in the removal and preparation of vascular smooth muscle tissue obtained from aorta of white New Zealand rabbits and human hearts from transplant patients are well established and have been successfully utilized by the personnel at Stanford University Medical School (Cardiology Department). A computer interfaced muscle bath system designed by Dr. Robert Ginsburg and associates was used to carry out the experimental procedure. The chambers (32 per system) were filled with standard Tyrode solution (chambers maintain a constant volume of 100 ml) and aerated continuously. The tissues were placed in the chambers and connected to stainless steel hooks to a linear motion transducer and preequilibrated for 1.5 hours at a constant temperature of 37° C. (a tension of 0.5 g was maintained during the pre-equilibration period).
A starting tension of approximately 0.5 g was achieved before adding the agonist ([…] KCl final concentration) to contract the tissues. After the contractions leveled off, the tensions were recorded before and after the crown ethers were added. To test for tissue integrity, 10^−5 M nitroglycerin was added at the end of the experiment (some relaxation should be observed), and the tension was recorded. […]
Accumulative dose response curves were obtained by repeating the previous procedure on both human and rabbit vascular smooth muscle tissues as previously described. However, crown ether concentrations of 10^−8 M, 10^−7 M, 10^−6 M and 10^−5 M were added accumulatively instead of only one dose (10^−5 M was used to screen the crowns) and the tensions recorded for each concentration (before the next concentration of ionophore was added, the contractile tension of the tissue had leveled off).

mice = conditions: reported by Gad et al.; cited from earlier work
[2] = system: adult albino Sprague-Dawley rats; test: Acute oral toxicity study in rats (GLP); assay type: in vivo, rat
Source text: (§1) No mortality was observed during the study. […] Animals were asymptomatic by day 3. […] Thus, crown ethers and silacrown ethers of similar cavity size behave similarly, but the silacrown ethers have dramatically lower toxicity.

[3] = Acute oral toxicity study in rats (GLP); assay type: in vivo, rat; conditions: rat, in vivo, adult albino Sprague-Dawley rats
Source text: as §1

Compound | contractile response of vascular smooth muscle tissue (relaxation) [1] | LD50 acute oral toxicity (mice) [mg/kg] | also measured
12-crown-6 [Example 12-crown-6] | similar | – | –
C[Si]1(C)OCCOCCOCCO1 [1,1-dimethylsila-11-crown-4] | similar | – | –
C1COCCOCCOCCO1 [Example 12-crown-4, 12-crown-4] | – | 2830 | –
C1COCCOCCOCCOCCO1 [Example 15-crown-5, 15-crown-5] | – | 2100 | –
C1CCC2OCCOCCOC3CCCCC3OCCOCCOC2C1 (stereo not drawn) [dicyclohexano-18-crown-6] | – | 176 | –
C1CCC2OCCOCCOCCOC3CCCCC3OCCOCCOCCOC2C1 (stereo not drawn) [dicyclohexano-24-crown-8] | – | 75 | –
C[Si]1(C)OCCOCCOCCOCCO1 [dimethylsila-14-crown-5] | – | – | acute oral LD50 [2]: 9,900 mg/kg
C[Si]1(C)OCCOCCOCCOC2CCCCC2O1 (stereo not drawn) [dimethylsila-14-cyclohexylcrown-5, Dimethylsila-14-cyclohexylcrown-5] | – | – | LD50 [3]: > 5000 mg/kg
C[Si]1(C)OCCOCCOCCOCCOCCO1 [dimethylsila-17-crown-6] | similar | – | –
